Measured values published in publication PMC6689897, “Drugging an undruggable pocket on KRAS” (Proceedings of the National Academy of Sciences of the …, 2019).

Columns and labels:
GDP-KRASG12C::SOS1 = GDP-KRASG12C::SOS1 (Homo sapiens, UniProt P01116, C118S/C51S/C80L/G12C); assay: Alpha Screen PPI assay; type: biochemical; conditions: for IC50: Alpha Screen, duplicate
Description: (§1) 221 Measurements of various protein–protein interactions were performed using the Alpha
(§2) 222 Screen technology developed by Perkin Elmer. Recombinant RAS proteins (H-, N-, K-
(§3) 223 RAS variants; all KRAS variants are based on KRAS isoform 4B (uniprot id P01116-2);
(§4) 224 KRAS (G12D) 1-169, N-terminal 6His-tag, C-terminal avi-tag was from Xtal
(§5) 225 BioStructures, Inc., KRAS (G12C) 1-169, C-terminal avi-tag, biotinylated, mutations:
(§6) 226 C51S, C80L, C118S, NRAS(wt) 1-172, C-terminal avi-tag, biotinylated; HRAS(wt) 1-
(§7) 227 166, C-terminal avi-tag, biotinylated). Biotinylation was performed in vitro with
(§8) 228 recombinant BirA biotin-protein ligase as recommended by the manufacturer (Avidity
(§9) 229 LLC, Aurora, Colorado, USA). Interacting proteins such as SOS1 (564-1049, N-terminal
(§10) 230 GST-tag, TEV cleavage site), cRaf (1-303, N-terminal GST-tag, TEV cleavage site) and
(§11) 231 PI3KA- RBD (160-317, N-term-HIS_GST-tag) were expressed as glutathione S
(§12) 232 transferase (GST) fusions. Accordingly, the Alpha Screen beads were glutathione coated
(§13) 233 Alpha Lisa acceptor beads (Perkin Elmer AL 109 R) and Alpha Screen Streptavidin
(§14) 234 conjugated donor beads (Perkin Elmer 6760002L). Nucleotides were purchased from
(§15) 236 interaction assays were carried out in PBS, containing 0.1% bovine serum albumin,
(§16) 237 0,05% Tween-20 and 10 µM of the corresponding nucleotide. Assays were carried out in
(§17) 238 white ProxiPlate-384 Plus plates (Perkin Elmer #6008280) in a final volume of 20 µL. In
(§18) 239 brief, biotinylated RAS proteins (10 nM final concentration) and GST-SOS1, GST-PI3K
(§19) 240 or GST-CRAF (10 nM final) were mixed with glutathione acceptor beads (5 µg/mL final
(§20) 241 concentration) in buffer, containing the corresponding nucleotides (GDP or GTP for
(§21) 242 assays containing SOS1, only GTP for interaction assays containing PI3K or CRAF) and
(§22) 243 were incubated for 30 min at room temperature. After addition of streptavidin donor
(§23) 244 beads (5 µg/mL final concentration) under green light, the mixture was further incubated
(§24) 245 for 60 min in the dark at room temperature. Single oxygen induced fluorescence was
(§25) 246 measured at an Enspire multimode plate reader (Perkin Elmer) according to the
(§26) 247 manufacturer’s recommendations. […]

GTP-KRASG12C::CRAF = GTP-KRASG12C::CRAF (Homo sapiens, UniProt P01116, C118S/C51S/C80L/G12C); assay: Alpha Screen PPI assay; type: biochemical; conditions: duplicate
Description: as §1, §2, §3, §4, §5, §6, §7, §8, §9, §10, §11, §12, §13, §14, §15, §16, §17, §18, §19, §20, §21, §22, §23, §24, §25, §26

GTP-KRASG12C::PI3Kα = GTP-KRASG12C::PI3Kα (Homo sapiens, UniProt P01116, C118S/C51S/C80L/G12C); assay: Alpha Screen PPI assay; type: biochemical; conditions: duplicate, read-out: IC50 GTP-KRASG12C::PI3K
Description: as §1, §2, §3, §4, §5, §6, §7, §8, §9, §10, §11, §12, §13, §14, §15, §16, §17, §18, §19, §20, §21, §22, §23, §24, §25, §26

GTP-KRASG12C::SOS1 = GTP-KRASG12C::SOS1 (Homo sapiens, UniProt P01116, C118S/C51S/C80L/G12C); assay: Alpha Screen PPI assay; type: biochemical; conditions: duplicate
Description: as §1, §2, §3, §4, §5, §6, §7, §8, §9, §10, §11, §12, §13, §14, §15, §16, §17, §18, §19, §20, §21, §22, §23, §24, §25, §26

NCI-H358 cells = assay: pERK quantification (Meso Scale Discovery); type: cell-based, human
Description: Active RAS signals through RAF and MEK to induce phosphorylation of ERK (phospho-ERK). Phospho-ERK levels were quantified using a plate-based electrochemiluminescent assay (MESO SCALE DISCOVERY). […]
252 (175 cm2) using RPMI medium supplemented with 10% fetal bovine serum. Cultures
253 were incubated at 37 °C and 5% CO2 in a humidified atmosphere, with medium change
254 or subcultivation 2-3 times a week. […]
257 atmosphere, with medium change or subcultivation 2-3 times a week. In case starvation
258 conditions were used in combination with EGF stimulation, cells were kept in medium
260 stimulation (50ng/mL) for 10 minutes. […]
308 The next day the compounds (30µL of serial dilutions) were added in triplicates. The
310 nano molar minimum. Compounds (Stock: 10mM in 100% DMSO) were diluted in
311 medium. Cells were incubated at 37°C and 5% CO2 in a humidified atmosphere for 14
312 days. […]
315 wavelength was 544/15 nm, emission 590 nm. Data were fitted by iterative calculation
316 using a sigmoidal curve analysis program based on GraphPAD Prism with variable hill
319 MAPK pathway signaling (pERK, pAKT quantification)
320 MSD 96-well multispot assays for Phospho/Total ERK1/2 and Phospho(Ser473)/Total
321 AKT whole cell lysate kits (Meso Scale Discovery, Gaithersburg, MD, #K15107D,
322 #K15100D) were used according to the manufacturer’s instructions. Briefly, 50.000
323 cells were seeded per well and grown in 96 well plates. Cells were washed in ice cold
324 PBS and lysed in 50µL ice-cold lysis buffer supplemented with the provided protease
325 inhibitors. MSD plates were blocked for 1h, washed and 40µL of lysate was added in
326 duplicates to wells and incubated at room temperature for 3 hours while shaking at
327 400rpm. To measure the amount of phosphorylated AKT or ERK, the specific primary
328 antibody was added for 1 hour. After washing, read buffer was added and the plates
329 were measured on a SECTOR 6000 instrument (Meso Scale Discovery). Samples were
330 normalized to total ERK or total AKT values, respectively.
332 RAS GTP detection (Ras G-LISA Activation assay):
333 Ras-GTP levels were analyzed using a Ras G-LISA assay kit (Cytoskeleton Inc.,
335 600.000 cells were seeded in 6 wells and grown to 70% confluence. Cells were washed
337 provided protease inhibitor cocktail. Lysates were quickly frozen in liquid nitrogen
338 and stored at -80°C until further usage. After normalizing protein concentration, 40µg
339 of protein was added in duplicates to wells of the Ras G-LISA plate coated with Ras
340 GTP-binding protein and incubated at 4°C for 30 minutes while shaking at 400rpm. […]
344 HRP detection reagent. Absorbance was measured by 490nm using an EnSpire
345 Multimode Reader (Perkin Elmer). Background was determined by a negative control […]

C=CC(=O)N1CCN(c2ncnc3c(F)c(-c4c(O)cccc4F)c(Cl)cc23)CC1 [ARS-1620, reference compound]
activity on the GDP-dependent KRAS^G12C::SOS1 interaction (GDP-KRASG12C::SOS1): displayed activity
IC50 (GDP-KRASG12C::SOS1): 590 nM
IC50 (GTP-KRASG12C::CRAF): > 10000 nM
IC50 (GTP-KRASG12C::PI3Kα): > 10000 nM
IC50 (GTP-KRASG12C::SOS1): > 10000 nM
inhibition of pERK compared with 1 (NCI-H358 cells; high growth factor conditions, 2 h): similar, albeit more extended, inhibition of pERK

Cn1cnc(Cn2ccc3ccc(CNCc4[nH]c5ccccc5c4[C@H]4NC(=O)c5ccc(O)cc54)cc32)c1 [Compound 1]
IC50 (GDP-KRASG12C::SOS1): 450 nM
IC50 (GTP-KRASG12C::CRAF): 180 nM
IC50 (GTP-KRASG12C::PI3Kα): 100 nM
IC50 (GTP-KRASG12C::SOS1): 360 nM
EC50 (NCI-H358 cells; Homo sapiens, NCI-H358, high growth factor conditions, 2 h, read-out: EC50 inhibition of pERK relative to total ERK): 5800 nM
pERK levels (NCI-H358 cells; starved 24 h low serum, 2 h compound, then EGF): dose-dependently reduced

CN(C)Cc1[nH]c2ccccc2c1[C@H]1NC(=O)c2ccc(O)cc21 [Compound 18]
decrease in phospho-ERK levels (NCI-H358 cells; at 50 µM, 2 h after treatment): almost complete inhibition
